# The source made the active and inactive calls. The calls are words filed in the database; no cut-off is given here.
# Assays:
# [1] = test system: Mus musculus; assay: In vivo inverse agonist activity at CB1 receptor in C57 mouse assessed as reduction in CP55940-induced inhibition of upper gastrointestinal motility at 10 mg/kg, po after 2 hrs; type: functional, organism-based
# [2] = biological target: Cannabinoid receptor 1 (Homo sapiens, UniProt P21554); assay: Inverse agonist activity at human CB1 receptor expressed in HEK293 cells assessed as forskolin-stimulated cAMP accumulation after 30 mins by HTRF assay; type: functional, cell-based
# Chain of Cannabinoid receptor 1 (P21554 whole entry): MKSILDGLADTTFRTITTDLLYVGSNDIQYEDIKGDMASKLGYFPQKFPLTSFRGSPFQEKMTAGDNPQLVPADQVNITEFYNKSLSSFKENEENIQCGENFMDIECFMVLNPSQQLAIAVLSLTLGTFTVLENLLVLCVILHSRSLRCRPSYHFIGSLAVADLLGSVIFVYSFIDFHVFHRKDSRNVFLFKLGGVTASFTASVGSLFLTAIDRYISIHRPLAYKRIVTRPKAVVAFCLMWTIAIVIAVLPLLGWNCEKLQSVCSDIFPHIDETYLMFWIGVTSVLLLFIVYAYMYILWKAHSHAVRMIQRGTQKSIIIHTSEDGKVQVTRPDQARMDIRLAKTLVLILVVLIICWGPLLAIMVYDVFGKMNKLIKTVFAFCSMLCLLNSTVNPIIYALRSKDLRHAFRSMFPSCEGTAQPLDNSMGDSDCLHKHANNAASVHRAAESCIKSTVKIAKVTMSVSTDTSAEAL
# [3] = Ratio of drug level in brain to plasma in C57BL/6J mouse at 20 mg/kg, po measured after 1 hr; type: ADME, organism-based; settings: brain and plasma
# [4] = Ratio of drug level in brain to plasma in C57BL/6J mouse at 20 mg/kg, po measured after 4 hr; type: ADME, organism-based; settings: brain and plasma
# [5] = species on record: Homo sapiens; assay: Selectivity index, ratio of EC50 for human CB2 receptor expressed in HEK293 cells to EC50 for human CB1 receptor expressed in HEK293 cells; type: cell-based
EC50 [2] [nM],Kp at 1 h [3],Kp at 1 h [4],Structure (SMILES),Activity [1],Ratio EC50 [5]
,,,Cc1c(C(=O)NN2CCCCC2)nn(-c2ccc(Cl)cc2Cl)c1-c1ccc(Cl)cc1,Active,
7.8,,,O=C(NC(CO)(CO)CO)c1ccc(S(=O)(=O)N2CCC(Nc3ncnc4ccc(C(c5ccc(Cl)cc5)c5ccc(Cl)cc5)cc34)CC2)cc1,,
4.6,0.02,0.08,O=S(=O)(N1CCC(Nc2ncnc3ccc(C(c4ccc(Cl)cc4)c4ccc(Cl)cc4)cc23)CC1)C(F)(F)F,,170
